In patent publication US20220218725A1, “METHODS AND MATERIALS FOR TREATING CANCER” (Mayo Foundation for Medical Education and Research, priority 2019, published 2022):
Read-outs that look alike come from different tables or passages of the source.

Columns and labels:
Nonmalignant splenic MNC = experiment: Viability of nonmalignant cells, Annexin V/PI assay; assay type: cell-based, human; conditions: 48 h, KPT-330 0.05-0.5 μM, CS 1-3 mM
Description: (§1) Primary patient samples were obtained. The mononuclear cells were obtained from bone marrow, spleen, peripheral blood and lymph nodes as follows. Freshly obtained tissue (lymph node, spleen, bone marrow) was placed in mesh screen and using a syringe plunger, the tissue was pressed into a petri dish. Samples were then rinsed through the screen using measured amounts of RPMI until all tissue has been pressed through. […] Subsequently the mononuclear cells were isolated via centrifugation in the presence of ficoll and this step was again repeated following washing the cells with RPMI media.
(§2) To isolate peripheral blood mononuclear cells (PBMCs), freshly obtained patient blood sample of patients were centrifuged in the present of ficoll and this step was repeated twice following washing the cells with PBS. Following isolating the mononuclear cells, the viability was assessed and ascertained proper viability above 80% prior to conduct respective experiments. Non-malignant cells were confirmed not to have a malignant condition by pathology review of the tissue.

Nonmalignant BM MNC = experiment: as above; assay type: cell-based, human; conditions: 48 h, KPT-330 0.05-0.5 μM, CS 1-3 mM
Description: as §1, §2

Nonmalignant PBMC = experiment: as above; assay type: cell-based, human; conditions: 48 h, KPT-330 0.05-0.5 μM, CS 1-3 mM
Description: as §1, §2

RPCI cells = experiment: Cell viability, Annexin V/PI assay; assay type: cell-based; conditions: RPCI (WM); 48 hours; KPT-330 0.1-1.0 μM, CS 1-3 mM, single agent or combination
Description: (§3) All cell lines were obtained from commercial vendors (ATCC or DSMZ), which includes mantle cell lymphoma (MCL) cell lines: Jeko-1, Mino, JVM-2; T-cell lymphoma (TCL) cell lines: SU-DHL-1, Karpas-299, SR-786 and HUT-78; and diffuse large B-cell lymphoma cell lines: OCI-Ly1, SU-DHL-2, OCI-Ly3, SU-DHL-6; Waldenstrom macroglobulinemia (WM) cell lines: BCWM, MWCL, RPCI; sarcoma cell lines: FUJI, SW872, and pancreatic cancer cell lines: PANC-1.
(§4) WM, TCL, and MCL cell lines were cultured in RPMI media supplemented with 10% fetal bovine serum while DLBCL cell lines were cultured in IMDM media with 10% human serum (Sigma). Pancreatic cancer and sarcoma cell lines were cultured in DMEM with 10% fetal bovine serum. All cell lines were assessed for their viability before use in experiments. Only cells with the viability of 85% or greater were used.

Panc-1 cells = experiment: Cell viability, Annexin V/PI assay; assay type: cell-based; conditions: Panc-1 (Pancreatic cancer); 48 hours; KPT-330 0.1-1.0 μM, CS 1-3 mM, single agent or combination
Description: as §3, §4

BCWM cells = experiment: Cell viability, Annexin V/PI assay; assay type: cell-based; conditions: BCWM (WM); 48 hours; KPT-330 0.1-1.0 μM, CS 1-3 mM, single agent or combination
Description: as §3, §4

MWCL cells = experiment: Cell viability, Annexin V/PI assay; assay type: cell-based; conditions: MWCL (WM); 48 hours; KPT-330 0.1-1.0 μM, CS 1-3 mM, single agent or combination
Description: as §3, §4

[1] = tested on: Peripheral T-cell lymphoma primary patient samples; experiment: Viability of primary patient samples, Annexin V/PI assay; assay type: cell-based, human; conditions: 48 h, KPT-330 0.05-0.5 μM, CS 1-3 mM
Description: as §1, §2

[2] = tested on: T-cell Lymphoblastic leukemia primary patient sample; experiment: as above; assay type: cell-based, human; conditions: Relapsed T-cell Lymphoblastic leukemia; 48 h; KPT-330 0.05-0.5 μM, CS 1-3 mM
Description: as §1, §2

[3] = tested on: MZL primary patient samples; experiment: as above; assay type: cell-based, human; conditions: 48 h, KPT-330 0.05-0.5 μM, CS 1-3 mM
Description: as §1, §2

[4] = tested on: CLL primary patient samples; experiment: as above; assay type: cell-based, human; conditions: TP53 deleted, 48 h, KPT-330 0.05-0.5 μM, CS 1-3 mM
Description: as §1, §2

[5] = tested on: Lymphoplasmacytic lymphoma primary patient sample; experiment: as above; assay type: cell-based, human; conditions: Lymphoplasmacytic lymphoma with IgG monoclonal gammopathy; 48 h; KPT-330 0.05-0.5 μM, CS 1-3 mM
Description: as §1, §2

JeKo-1 cells = experiment: Mitotic index calculation; assay type: cell-based; conditions: 48 hours, light microscopy
Description: Following the incubation of respective time periods, cytospin slides were prepared and stained with Hema 3 staining on the many factors protocol. Subsequently the mitotic index was calculated by the number of mitoses evaluated in 10 high power fields (×400).

[6] = Viability of nonmalignant cells, Annexin V/PI assay; assay type: cell-based, human; conditions: human, KPT-330 0.05-0.5 μM, CS 1-3 mM, read-out: % viability normalized for respective controls
Description: as §1, §2

[7] = Relapsed Peripheral T-cell lymphoma (sample of r30)
[8] = Relapsed Peripheral T-cell lymphoma (sample of r31)
[9] = Relapsed splenic MZL (sample of r15)
[10] = Relapsed splenic MZL (sample of r16)
[11] = Relapsed splenic MZL (sample of r18)
[12] = Relapssd splenic MZL (sample of r17)
[13] = Relapsed CLL: Ibrutinib and Idalalisib resistant
[14] = Relapsed CLL: Ibrutinib resistent

Structure (SMILES) | % viability normalized for respective controls (RPCI cells) [%] | % viability normalized for respective controls (Panc-1 cells) [%] | % viability normalized for respective controls (BCWM cells) [%] | % viability normalized for respective controls (MWCL cells) [%] | % viability normalized for respective controls [1, 7] [%] | % viability normalized for respective controls [1, 8] [%] | % viability normalized for respective controls [2] [%] | % viability normalized for respective controls ([3]; Relapsed nodal MZL) [%] | % viability normalized for respective controls [3, 9] [%] | % viability normalized for respective controls [3, 10] [%] | % viability normalized for respective controls [3, 11] [%] | % viability normalized for respective controls [3, 12] [%] | % viability normalized for respective controls [4, 13] [%] | % viability normalized for respective controls [4, 14] [%] | % viability normalized for respective controls [5] [%] | mitotic index (MI) (JeKo-1 cells) | other results
C[N+](C)(C)CCO.O=C([O-])c1ccccc1O [CS, choline salicylate] | 92 | 90 | 84 | 89 | 64 | 73 | 82 | 65 | 63 | 71 | 65 | 82 | 78 | 75 | 88 | 166 /10 HPF | % viability normalized for respective controls (Nonmalignant splenic MNC; Splenic MNC (sample of r39)): 82%; % viability normalized for respective controls (Nonmalignant splenic MNC; Splenic MNC (sample of r40)): 64%; % viability normalized for respective controls (Nonmalignant splenic MNC; Splenic MNC (sample of r41)): 76%; % viability normalized for respective controls (Nonmalignant splenic MNC; Splenic MNC (sample of r42)): 76%; % viability normalized for respective controls (Nonmalignant BM MNC): 82%; % viability normalized for respective controls (Nonmalignant PBMC): 78%
O=C(/C=C\n1cnc(-c2cc(C(F)(F)F)cc(C(F)(F)F)c2)n1)NNc1cnccn1 [KPT-330, (Z)-3-[3-[3,5-bis (trifluoromethyl)phenyl]-1,2,4-triazol-1-yl]-N′-pyrazin-2-ylprop-2-enehydrazide] | 63 | 90 | 69 | 65 | 73 | 68 | 70 | 58 | 55 | 67 | 67 | 70 | 72 | 99 | 79 | 153 /10 HPF | viability at 48 h ([6]; nonmalignant bone marrow mononuclear cells, BM MNC): 78%; viability at 48 h ([6]; nonmalignant peripheral blood mononuclear cells (PBMC)): 86%; viability at 48 h ([6]; nonmalignant splenic mononuclear cells, Splenic MNC (sample of r39)): 84%; viability at 48 h ([6]; nonmalignant splenic mononuclear cells, Splenic MNC (sample of r40)): 66%; viability at 48 h ([6]; nonmalignant splenic mononuclear cells, Splenic MNC (sample of r41)): 59%; viability at 48 h ([6]; nonmalignant splenic mononuclear cells, Splenic MNC (sample of r42)): 58%
